Data set [1] concerns A375 human melanoma xenograft. The following applies: for survivors (FIG. 10 comparison): I.P. The text has this:
The following study evaluates two intravenous formulations according to the present invention against human tumor xenografts in athymic nude mice. […] Examples 1 and 2 describe the compositions of IDD-P (FIG. 1; formulation 1-F) and IDD-D respectively.
Husbandry: Female nude mice were 16 weeks of age (NCR-nufBr; Taconic Farms) for the A375 study. The mice were fed ad libitum water (reverse osmosis, 1 ppm C1) and autoclaved Prolab NIH-31 M/5% Rodent Diet consisting of 18% protein, 5% fat, 6% fiber, and 8% ash. Mice were housed in static microisolators on a 12-hour light cycle at 21-22° C. (70-72° F.) and 40%-60% humidity. The animal care and use program is AAALAC International accredited and specifically follows and complies with the recommendation of the National Research Council's Guidefor the Care and Use of Laboratory Animals.
Tumor Implantation: An A375 melanoma fragment (1 mm 3) was implanted subcutaneously in the flank of each nude mouse. When the tumors reached the 60-112 mg size range, the mice were sorted into treatment groups (on Day 1) such that the group mean tumor sizes ranged from 71.3 mg-72.5 mg. Estimated tumor weight was calculated using the formula: [formula]
CAMPTOSAR®, DTIC®, and HYCAMTIN® were obtained as the marketed drugs and solutions were prepared fresh on the day of dosing. CAMPTOSAR® (irinotecan, Phannacia & Upjohn Company, 20 mg/ml) and DTIC® (dacarbazine, Bayer Corporation, 20 mg/ml) were diluted with D5W. HYCAMTIN® (topotecan, SmithKlein Beecham) was reconstituted with water at 1 mg/ml.
Treatments: Volumes of 0.20 ml per 20-g mouse, body-weight adjusted, were administered once daily. Tumor-bearing athymic nude mice were matched on Day 1 into 13 groups of ten animals and drug administration was initiated. […] Three reference drugs were administered I.P.: CAMPTOSAR® was given in three doses at weekly intervals (qwk×3); HYCAMTIN® was given in four doses at four-day intervals (q4d×4); and DTIC® was given in five consecutive daily doses (qd×5). The tumor growth control group for these reference treatments received no treatment (Group 1).
Tumor Growth Endpoint: The tumor growth delay (TGD) method was used to assess efficacy. Tumor dimensions were measured twice weekly until the experiment was terminated on Day 62. Each animal was euthanized as a “cancer death” when its A375 melanoma reached a size of 2.0 g. Mean Day of Survival (MDS) values for all groups were based on the calculated day of death of each mouse, which is given by the formula: [formula]
TGD values, which represent treatment-effected extensions of survival time, were calculated from MDStreated−MDScontrol, the difference in MDS value for a given treatment group and the MDS value for A375 melanoma-bearing mice that received no treatment or the corresponding vehicle.
At the termination of the experiment on Day 62, treatment responses in survivors were classified as either complete tumor regression (CR), partial tumor regression (PR), or stable/progressive disease (SD/PD). A CR response indicates the absence of measurable tumor. In a PR response, the final tumor weight is lower than on Day 1 but larger than 0 mg. In a SD/PD response, mice survived to Day 62 with a progressively growing or stable tumor size that had not reached the 2.0-g endpoint.
Evaluation of Toxicity: The maximum tolerated dose (MTD), as defined by the NCI, is the highest dose at which no more than 10% of the animals die and the group mean body-weight loss is no more than 20%. Body weights were measured daily for four or five days and then twice weekly thereafter until the experiments were terminated on Day 62 of the study. The animals were also examined frequently for clinical signs of any adverse, drug-related side effects. Because mice are not tagged for MTD studies, only the mean group body weights recorded in the appended raw data are significant in those studies.

For data set [2] the following is noted: cited from earlier work.
Data set [3] concerns the target human serum albumin (HSA) (Homo sapiens, UniProt P02768). The following applies: PBS at pH 7.4; cited from earlier work.
The conditions of data set [4]: human plasma, pH 7.4, 37° C.; cited from earlier work.
For data set [5] the following is noted: whole blood; cited from earlier work.
The mark [6] stands for this setting: in 3% DMA 2.0 mg/kg p.o., q3d×4.
The mark [7] stands for this setting: in 3% DMA 4.0 mg/kg p.o., q3d×4.

Read-outs that look alike come from different tables or passages of the source.

Sequence of human serum albumin (HSA) (P02768 25-609): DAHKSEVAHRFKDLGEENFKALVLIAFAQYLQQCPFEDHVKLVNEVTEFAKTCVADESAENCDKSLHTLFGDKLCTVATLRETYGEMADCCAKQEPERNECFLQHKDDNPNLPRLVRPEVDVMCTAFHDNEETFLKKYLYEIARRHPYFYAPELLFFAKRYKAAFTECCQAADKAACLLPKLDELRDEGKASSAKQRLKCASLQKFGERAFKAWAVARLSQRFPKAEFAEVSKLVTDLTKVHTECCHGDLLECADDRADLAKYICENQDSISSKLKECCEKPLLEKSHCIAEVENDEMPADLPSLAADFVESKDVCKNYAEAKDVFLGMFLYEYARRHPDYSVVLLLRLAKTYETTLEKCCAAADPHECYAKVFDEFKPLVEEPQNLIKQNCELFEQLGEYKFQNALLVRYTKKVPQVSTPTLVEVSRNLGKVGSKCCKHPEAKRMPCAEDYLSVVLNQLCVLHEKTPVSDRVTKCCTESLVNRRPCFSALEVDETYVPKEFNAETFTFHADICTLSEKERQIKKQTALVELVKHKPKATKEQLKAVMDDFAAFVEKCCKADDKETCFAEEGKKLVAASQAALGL

Regarding `CN(C)/N=N/c1[nH]cnc1C(N)=O` [DTIC®, dacarbazine], the “mean day of survival (MDS)” value in data set [1] (150 mg/kg I.P., qd×5, Group 7 (n=8)) is reported as 37.6 days. Also, the “tumor growth delay (TGD)” value in data set [1] (150 mg/kg I.P., qd×5, vs untreated Group 1, not statistically significant) worked out at 7.3 days. Further, the “survivors (FIG. 10 comparison)” value in data set [1] (optimal regimen (150 mg/kg qd×5)) stood at 10%.

Turning to `CC[C@@](O)(C(=O)[O-])c1cc2n(c(=O)c1CO)Cc1cc3ccccc3nc1-2.[Na+]` [Sodium camptothecin], in data set [2] (administered via i.v.), the side effects result was “unpredictable side effects such as myelosuppression and hemorrhagic cystitis”. Also, the “antitumor activity in clinical trials” value in data set [2] (solubilized by sodium hydroxide in water, early 70's) is on record as “antitumor activity”.

On to `CC[C@@]1(O)C(=O)OCc2c1cc1n(c2=O)Cc2cc3c(CN(C)C)c(O)ccc3nc2-1` [HYCAMTIN®, topotecan], for which the “62-day survivors (number of 10 mice)” value in data set [1] (10 mg/kg I.P., q4d×4) was “one”. Moreover, the “mean day of survival (MDS)” value in data set [1] (10 mg/kg I.P., q4d×4, Group 6 (n=9)) was determined as 46.7 days. Moreover, the “tumor growth delay (TGD)” value in data set [1] (10 mg/kg I.P., q4d×4, vs untreated Group 1) is given as 16.4 days. Besides, in data set [1] (optimal regimen (10 mg/kg q4d×4)), the “survivors (FIG. 10 comparison)” value was determined as 0%.

On to `CC[C@@]1(O)C(=O)OCc2c1cc1n(c2=O)Cc2cc3c([N+](=O)[O-])cccc3nc2-1` [9-nitro-camptothecin, 9-nitro-20(S)-camptothecin], for which the “CR responses, share of mice” value in data set [1] (2 mg/kg p.o., q3d×4) is 40%. The “CR responses, share of mice” value in data set [1] (4 mg/kg p.o., q3d×4) came to 40%. In data set [1] (setting [6]), the 62-day survival rate came to 70%, the “62-day survivors (number of 10 mice)” value is “seven”, the “CR responses on Day 62” value turned out to be 4 and the “PR responses on Day 62” value was 1. In data set [1] (setting [6]), the “SD/PD responses on Day 62” value is 2 and the tolerability result was “well tolerated”. The “mean day of survival (MDS)” value in data set [1] (in 3% DMA 2.0 mg/kg p.o., q3d×4, Group 13 (n=3)) is 47.6 days. The “tumor growth delay (TGD)” value in data set [1] (in 3% DMA 2.0 mg/kg p.o., q3d×4, vs vehicle control Group 4) came to 21.6 days. For the same molecule, in data set [1] (setting [7]), the 62-day survival rate was 70%, the “62-day survivors (number of 10 mice)” value is “seven”, the “CR responses on Day 62” value stood at 4 and the “SD/PD responses on Day 62” value stood at 3. Besides, the tolerability entry in data set [1] (setting [7]) is on record as “well tolerated”. Besides, in data set [1] (in 3% DMA 4.0 mg/kg p.o., q3d×4, Group 12 (n=3)), the “mean day of survival (MDS)” value came out at 45.3 days. Moreover, the “tumor growth delay (TGD)” value in data set [1] (in 3% DMA 4.0 mg/kg p.o., q3d×4, vs vehicle control Group 4) is 19.3 days.

For `CC[C@@]1(O)C(=O)OCc2c1cc1n(c2=O)Cc2cc3ccccc3nc2-1` [camptothecin, 20(S)-camptothecin], the “affinity of HSA for carboxylate form versus α-hydroxy lactone form” value in data set [3] is recorded as 150 fold. Also, in data set [4], the “% α-hydroxy lactone at equilibrium” value is on record as 0.2% and the “half-life of lactone ring opening” value is given as 11 min. Also, in data set [5], the “equilibrium α-hydroxy lactone concentration” value was 5.3% and the half-life of lactone is on record as 22 min.

`CCc1c2c(nc3ccc(OC(=O)N4CCC(N5CCCCC5)CC4)cc13)-c1cc3c(c(=O)n1C2)COC(=O)[C@]3(O)CC` [CAMPTOSAR®, irinotecan]: the “62-day survivors (number of 10 mice)” value in data set [1] (100 mg/kg I.P., qwk×3) is recorded as “one”. Further, the “mean day of survival (MDS)” value in data set [1] (100 mg/kg I.P., qwk×3, Group 5 (n=9)) stood at 47.3 days. Moreover, in data set [1] (100 mg/kg I.P., qwk×3, vs untreated Group 1), the “tumor growth delay (TGD)” value is 17 days. Further, in data set [1] (optimal regimen (100 mg/kg qwk×3)), the “survivors (FIG. 10 comparison)” value is given as 0%.
